Source: US20130324412A1, “N-ALKOXYAMIDES OF 6-(SUBSTITUTED PHENYL)-4-AMINOPICOLINATES AND 2-(SUBSTITUTED PHENYL)-6-AMINO-4-PYRIMIDINECARBOXYLATES AND THEIR USE AS SELECTIVE HERBICIDES FOR CROPS” (DOW AGROSCIENCES LLC, priority 2009, published 2013)

How the values were obtained:
Type in all cases: in vivo
corn (Zea mays) = test: General postemergence herbicidal activity, corn; conditions: post-emergence, 336 h, postemergence, after 14 d, 0 = no injury, 100 = complete kill, read-out: ZEAMX % Visual Injury; for plant injury at 35 g/ha: 35 g ai/ha; for plant injury at 70 g/ha: 70 g ai/ha; for plant injury at 140 g/ha: 140 g ai/ha
Description: (§1) Seeds or nutlets of the desired test plant species were planted in Sun Gro MetroMix® 360 planting mixture, which typically has a pH of 6.0 to 6.8 and an organic matter content of about 30 percent, in plastic pots with a surface area of 64 square centimeters (cm^2). When required to ensure good germination and healthy plants, a fungicide treatment and/or other chemical or physical treatment was applied. The plants were grown for 7-21 days (d) in a greenhouse with an approximate 15-hour (h) photoperiod which was maintained at about 23-29° C. during the day and 22-28° C. during the night. Nutrients and water were added on a regular basis and supplemental lighting was provided with overhead metal halide 1000-Watt lamps as necessary. The plants were employed for testing when they reached the first or second true leaf stage.
(§2) A weighed amount, determined by the highest rate to be tested, of each test compound was dissolved in 4 mL of a 97:3 volume per volume (v/v) mixture of acetone and dimethyl sulfoxide (DMSO) to obtain concentrated stock solutions. […] The concentrated stock solutions obtained were diluted with 20 mL of an aqueous mixture containing acetone, water, isopropyl alcohol, DMSO, Atplus 411F crop oil concentrate, and Triton X-155 surfactant in a 48.5:39:10:1.5:1.0:0.02 v/v ratio to obtain spray solutions containing the highest application rates. Additional application rates were obtained by serial dilution of 12 mL of the high rate solution into a solution containing 2 mL of 97:3 v/v mixture of acetone and DMSO and 10 mL of an aqueous mixture containing acetone, water, isopropyl alcohol, DMSO, Atplus 411F crop oil concentrate, and Triton X-155 surfactant in a 48.5:39:10:1.5:1.0:0.02 v/v ratio to obtain ½×, ¼×, ⅛× and 1/16× rates of the high rate. Compound requirements are based upon a 12 mL application volume at a rate of 187 liters per hectare (L/ha). Formulated compounds were applied to the plant material with an overhead Mandel track sprayer equipped with 8002E nozzles calibrated to deliver 187 L/ha over an application area of 0.503 square meters (m^2) at a spray height of 18 inches (43 cm) above the average plant canopy height. Control plants were sprayed in the same manner with the solvent blank.
(§3) The treated plants and control plants were placed in a greenhouse as described above and watered by sub-irrigation to prevent wash-off of the test compounds. After 14 d, the condition of the test plants as compared with that of the untreated plants was determined visually and scored on a scale of 0 to 100 percent where 0 corresponds to no injury and 100 corresponds to complete kill.

[1] = system: velvetleaf (Abutilon theophrasti); test: General postemergence herbicidal activity, velvetleaf; conditions: post-emergence, 336 h, postemergence, after 14 d, 0 = no injury, 100 = complete kill, read-out: ABUTH % Visual Injury; for pest or weed control at 35 g/ha: 35 g ai/ha; for pest or weed control at 70 g/ha: 70 g ai/ha; for pest or weed control at 140 g/ha: 140 g ai/ha
Description: as §1, §2, §3

[2] = system: lambsquarters (Chenopodium album); test: General postemergence herbicidal activity, lambsquarters; conditions: post-emergence, 336 h, postemergence, after 14 d, 0 = no injury, 100 = complete kill, read-out: CHEAL % Visual Injury; for pest or weed control at 35 g/ha: 35 g ai/ha; for pest or weed control at 70 g/ha: 70 g ai/ha; for pest or weed control at 140 g/ha: 140 g ai/ha
Description: as §1, §2, §3

[3] = system: wild buckwheat (Polygonum convululus); test: General postemergence herbicidal activity, wild buckwheat; conditions: post-emergence, 336 h, postemergence, after 14 d, 0 = no injury, 100 = complete kill, read-out: POLCO % Visual Injury; for pest or weed control at 35 g/ha: 35 g ai/ha; for pest or weed control at 70 g/ha: 70 g ai/ha; for pest or weed control at 140 g/ha: 140 g ai/ha
Description: as §1, §2, §3

## COc1c(Cl)ccc(-c2cc(N)c(Cl)c(C(=O)NOCc3ccccc3)n2)c1F [Compound 5, 4-Amino-N-(benzyloxy)-3-chloro-6-(4-chloro-2-fluoro-3-methoxyphenyl)picolinamide]
Corn (Zea mays)
  plant injury at 35 g/ha: 0%
[1]
  pest or weed control at 35 g/ha: 100%
[2]
  pest or weed control at 35 g/ha: 100%
[3]
  pest or weed control at 35 g/ha: 100%

## COc1c(Cl)ccc(-c2cc(N)c(Cl)c(C(=O)N(C)OC)n2)c1F [Compound 6, 4-Amino-3-chloro-6-(4-chloro-2-fluoro-3-methoxyphenyl)-N-methoxy-N-methyl-picolinamide]
Corn (Zea mays)
  plant injury at 70 g/ha: 0%
[1]
  pest or weed control at 70 g/ha: 100%
[2]
  pest or weed control at 70 g/ha: 100%
[3]
  pest or weed control at 70 g/ha: 100%

## CCCONC(=O)c1nc(-c2ccc(Cl)c(OC)c2F)cc(N)c1Cl [Compound 7, 4-Amino-3-chloro-6-(4-chloro-2-fluoro-3-methoxyphenyl)-N-propoxypicolinamide]
Corn (Zea mays)
  plant injury at 35 g/ha: 25%
[1]
  pest or weed control at 35 g/ha: 100%
[2]
  pest or weed control at 35 g/ha: 100%
[3]
  pest or weed control at 35 g/ha: 100%

## COc1c(Cl)ccc(-c2cc(N)c(Cl)c(C(=O)NOC(C)C)n2)c1F [Compound 8, 4-Amino-3-chloro-6-(4-chloro-2-fluoro-3-methoxyphenyl)-N-isopropoxypicolinamide]
Corn (Zea mays)
  plant injury at 70 g/ha: 0%
[1]
  pest or weed control at 70 g/ha: 100%
[2]
  pest or weed control at 70 g/ha: 100%
[3]
  pest or weed control at 70 g/ha: 100%

## C=CCON(C(C)=O)C(=O)c1nc(-c2ccc(Cl)c(OC)c2F)nc(N)c1C=C [Compound 9, N-Acetyl-N-(2-propenyloxy)-6-amino-2-(4-chloro-2-fluoro-3-methoxyphenyl)-5-vinylpyrimidine-4-carboxamide]
Corn (Zea mays)
  plant injury at 140 g/ha: 25%
[1]
  pest or weed control at 140 g/ha: 95%
[2]
  pest or weed control at 140 g/ha: 100%
[3]
  pest or weed control at 140 g/ha: 80%

## C=CCONC(=O)c1nc(-c2ccc(Cl)c(OC)c2F)nc(N)c1C=C [Compound 10, N-(2-Propenyloxy)-6-amino-2-(4-chloro-2-fluoro-3-methoxyphenyl)-5-vinylpyrimidine-4-carboxamide]
Corn (Zea mays)
  plant injury at 140 g/ha: 15%
[1]
  pest or weed control at 140 g/ha: 100%
[2]
  pest or weed control at 140 g/ha: 85%
[3]
  pest or weed control at 140 g/ha: 15%

## C=CCONC(=O)c1nc(C2CC2)nc(N)c1Cl [Compound 11, N-(2-Propenyloxy)-6-amino-5-chloro-2-cyclopropylpyrimidine-4-carboxamide]
Corn (Zea mays)
  plant injury at 140 g/ha: 20%
[1]
  pest or weed control at 140 g/ha: 40%
[2]
  pest or weed control at 140 g/ha: 100%
[3]
  pest or weed control at 140 g/ha: 100%

## COc1c(Cl)ccc(-c2cc(N)c(Cl)c(C(=O)NOC3CCCCO3)n2)c1F (stereo not drawn) [Compound 12, 4-amino-3-chloro-6-(4-chloro-2-fluoro-3-methoxyphenyl)-N-(tetrahydro-2H-pyran-2-yloxy)picolinamide]
Corn (Zea mays)
  plant injury at 70 g/ha: 0%
[1]
  pest or weed control at 70 g/ha: 100%
[2]
  pest or weed control at 70 g/ha: 100%
[3]
  pest or weed control at 70 g/ha: 100%

## C#CCONC(=O)c1nc(-c2ccc(Cl)c(OC)c2F)cc(N)c1Cl [Compound 13, 4-Amino-3-chloro-6-(4-chloro-2-fluoro-3-methoxyphenyl)-N-(2-propynyloxy)picolinamide]
Corn (Zea mays)
  plant injury at 70 g/ha: 0%
[1]
  pest or weed control at 70 g/ha: 100%
[2]
  pest or weed control at 70 g/ha: 100%
[3]
  pest or weed control at 70 g/ha: 100%

## COc1c(Cl)ccc(-c2cc(N)c(Cl)c(C(=O)NOCc3ccc(C)cc3)n2)c1F [Compound 14, 4-Amino-3-chloro-6-(4-chloro-2-fluoro-3-methoxyphenyl)-N-(4-methyl-benzyloxy)picolinamide]
Corn (Zea mays)
  plant injury at 70 g/ha: 15%
[1]
  pest or weed control at 70 g/ha: 100%
[2]
  pest or weed control at 70 g/ha: 100%
[3]
  pest or weed control at 70 g/ha: 100%

## COc1c(Cl)ccc(-c2cc(N)c(Cl)c(C(=O)NOCc3ccc(Cl)cc3)n2)c1F [Compound 15, 4-Amino-3-chloro-6-(4-chloro-2-fluoro-3-methoxyphenyl)-N-(4-chloro-benzyloxy)picolinamide]
Corn (Zea mays)
  plant injury at 70 g/ha: 10%
[1]
  pest or weed control at 70 g/ha: 100%
[2]
  pest or weed control at 70 g/ha: 100%
[3]
  pest or weed control at 70 g/ha: 100%

## COC[C@H]1O[C@H](ONC(=O)c2nc(-c3ccc(Cl)c(OC)c3F)cc(N)c2Cl)[C@H](OC)[C@@H](OC)[C@@H]1OC [Compound 16, 4-Amino-3-chloro-6-(4-chloro-2-fluoro-3-methoxyphenyl)-N-((2R,3R,4S,5R,6R)-3,4,5-trimethoxy-6-(methoxymethyl)tetrahydro-2H-pyran-2-yloxy)picolinamide]
Corn (Zea mays)
  plant injury at 70 g/ha: 10%
[1]
  pest or weed control at 70 g/ha: 100%
[2]
  pest or weed control at 70 g/ha: 100%
[3]
  pest or weed control at 70 g/ha: 95%

## COc1c(Cl)ccc(-c2cc(N)c(Cl)c(C(=O)NOC3CCCO3)n2)c1F (stereo not drawn) [Compound 17, 4-Amino-3-chloro-6-(4-chloro-2-fluoro-3-methoxyphenyl)-N-(tetrahydrofuran-2-yloxy)picolinamide]
Corn (Zea mays)
  plant injury at 70 g/ha: 10%
[1]
  pest or weed control at 70 g/ha: 100%
[2]
  pest or weed control at 70 g/ha: 100%
[3]
  pest or weed control at 70 g/ha: 100%

## COc1c(Cl)ccc(-c2cc(N)c(Cl)c(C(=O)NOC3C=CCCC3)n2)c1F (stereo not drawn) [Compound 18, 4-Amino-3-chloro-6-(4-chloro-2-fluoro-3-methoxyphenyl)-N-(cyclohex-2-enyl-oxy)picolinamide]
Corn (Zea mays)
  plant injury at 140 g/ha: 5%
[1]
  pest or weed control at 140 g/ha: 100%
[2]
  pest or weed control at 140 g/ha: 100%
[3]
  pest or weed control at 140 g/ha: 100%

## COc1c(Cl)ccc(-c2cc(N)c(Cl)c(C(=O)NOCC(=O)O)n2)c1F [Compound 19, 2-(4-Amino-3-chloro-6-(4-chloro-2-fluoro-3-methoxyphenyl)picolinamidooxy)acetic acid]
Corn (Zea mays)
  plant injury at 35 g/ha: 25%
[1]
  pest or weed control at 35 g/ha: 85%
[2]
  pest or weed control at 35 g/ha: 100%
[3]
  pest or weed control at 35 g/ha: 85%

## C=C(C)CONC(=O)c1nc(-c2ccc(Cl)c(OC)c2F)cc(N)c1Cl [Compound 28, 4-Amino-3-chloro-6-(4-chloro-2-fluoro-3-methoxyphenyl)-N-(2-methyl-2-propenyl-oxy)picolinamide]
Corn (Zea mays)
  plant injury at 35 g/ha: 25%
[1]
  pest or weed control at 35 g/ha: 100%
[2]
  pest or weed control at 35 g/ha: 100%

## COc1c(Cl)ccc(-c2cc(N)c(Cl)c(C(=O)NOCc3cncs3)n2)c1F [Compound 36, 4-Amino-3-chloro-6-(4-chloro-2-fluoro-3-methoxyphenyl)-N-(thiazol-5-yl-methoxy)picolinamide]
Corn (Zea mays)
  plant injury at 35 g/ha: 25%
[1]
  pest or weed control at 35 g/ha: 100%
[2]
  pest or weed control at 35 g/ha: 100%

## COc1c(Cl)ccc(-c2cc(N)c(Cl)c(C(=O)NOCc3nnsc3Cl)n2)c1F [Compound 47, 4-Amino-3-chloro-N-((5-chloro-1,2,3-thiadiazol-4-yl)methoxy)-6-(4-chloro-2-fluoro-3-methoxyphenyl)picolinamide]
Corn (Zea mays); 17.5 g ai/ha
  plant injury at 17.5 g/ha: 35%
[1]; 17.5 g ai/ha
  pest or weed control at 17.5 g/ha: 100%
[2]; 17.5 g ai/ha
  pest or weed control at 17.5 g/ha: 100%
